Assay [1] relates to Leishmania donovani. In words: Antileishmanial activity against Leishmania donovani LV82 promastigotes assessed as inhibition of parasite proliferation. In kind it is functional, organism-based.
Assay [2] deals with Leishmania major. As to the kind of experiment: Effect on 4,14-Dimethylzymosterol level in Leishmania major LV39 promastigotes assessed as fold change at 2 uM incubated for 48 hrs by LC-MS/MS analysis. In kind it is functional.
In assay [3] the test system is Leishmania major. In words: Effect on 14-Methylfecosterol level in Leishmania major LV39 promastigotes assessed as fold change at 2 uM incubated for 48 hrs by LC-MS/MS analysis. In kind it is functional.
The subject of assay [4] is Leishmania major. In words: Effect on 14-methylzymosterol level in Leishmania major LV39 promastigotes assessed as fold change at 2 uM incubated for 48 hrs by LC-MS/MS analysis. In kind it is functional.
Assay [5] concerns Leishmania major. As to the kind of experiment: Effect on Ergosterol level in Leishmania major LV39 promastigotes assessed as fold change at 2 uM incubated for 48 hrs by LC-MS/MS analysis. In kind it is functional.
The subject of assay [6] is Leishmania major. In words: Effect on 5-Dehydroepisterol level in Leishmania major LV39 promastigotes assessed as fold change at 2 uM incubated for 48 hrs by LC-MS/MS analysis. In kind it is functional.
Assay [7] concerns Leishmania major. In words: Effect on Ergosta-5,7-dienol level in Leishmania major LV39 promastigotes assessed as fold change at 2 uM incubated for 48 hrs by LC-MS/MS analysis. In kind it is functional.
Assay [8] has as its system Leishmania major. In words: Effect on Cholesterol level in Leishmania major LV39 promastigotes assessed as fold change at 2 uM incubated for 48 hrs by LC-MS/MS analysis. In kind it is functional.
For assay [9], the system named is Leishmania major. As to the kind of experiment: Effect on lanosterol level in Leishmania major LV39 promastigotes assessed as fold change at 2 uM incubated for 48 hrs by LC-MS/MS analysis. In kind it is functional.
The test system of assay [10] is Leishmania major. As to the kind of experiment: Effect on 4-CH2OH-LS sterol level in Leishmania major LV39 promastigotes assessed as fold change at 2 uM incubated for 48 hrs by LC-MS/MS analysis. In kind it is functional.
Assay [11] concerns Leishmania donovani. In words: Antileishmanial activity against Leishmania donovani promastigotes infected in mouse J774 cells assessed as inhibition of parasite proliferation. In kind it is functional, organism-based.
Assay [12] deals with Leishmania donovani. As to the kind of experiment: Antileishmanial activity against Leishmania donovani LV82 promastigotes infected in female mouse Peritoneal macrophage cells incubated for 72 hrs by DAPI staining based analysis. In kind it is functional, organism-based.

Some results are limits rather than exact numbers.

As a reminder, the EC50 is the midpoint of the concentration-response curve.

Take `O=C(Nc1ccccc1)N1CCN(Cc2ccncc2)CC1`: in [1], the EC50 is greater than 100 µM. On to `CC(C)Oc1cccc(NC(=O)N2CCN(Cc3ccncc3)CC2)c1`, for which the EC50 in assay [1] was greater than 50 µM. For the compound `CC[C@@H]([C@H](C)O)n1ncn(-c2ccc(N3CCN(c4ccc(OC[C@@H]5CO[C@@](Cn6cncn6)(c6ccc(F)cc6F)C5)cc4)CC3)cc2)c1=O` [POSACONAZOLE], the “fold change (FC)” value is on record as 10 in assay [2]; 321 in [3]; 3.1 in assay [4]; 0.027 in [5]; 0.02 in assay [6]; 0.022 in assay [7]. In addition, the “fold change (FC)” value stood at 1.3 in assay [8], 3.6 in assay [9] and 1.4 in assay [10]. For `CC(C)(C)c1cccc(NC(=O)N2CCN(Cc3ccncc3)CC2)c1`, the EC50 in [11] and in [12] was greater than 50 µM each time. As to `O=C(Nc1cc(F)cc(F)c1)N1CCN(Cc2ccncc2)CC1`, the concentration for a half-maximal effect (EC50) in assay [1] is greater than 100 µM. For `Cc1ccccc1NC(=O)N1CCN(Cc2ccncc2)CC1`, the EC50 in assay [1] was greater than 100 µM. Still for that read-out and setting: the value for `O=C(Nc1ccc(F)cc1)N1CCN(Cc2ccncc2)CC1` was greater than 100 µM; that for `COc1cc(NC(=O)N2CCN(Cc3ccncc3)CC2)cc(OC)c1` was greater than 100 µM. In assay [12], `O=C(Nc1cc(C(F)(F)F)cc(C(F)(F)F)c1)N1CCN(Cc2ccncc2)CC1` came in with an EC50 greater than 50 µM. Take `COc1ccc(NC(=O)N2CCN(Cc3ccncc3)CC2)cc1`: the EC50 in [1] is greater than 100 µM. The same measure, in the same setting: next, `O=C(Nc1ccc(OCc2cc(C(F)(F)F)cc(C(F)(F)F)c2)cc1)N1CCN(CCCc2ccccc2)CC1`: greater than 50 µM; `O=C(Nc1ccc(OCc2ccccc2)cc1)N1CCN(CCc2ccncc2)CC1`: greater than 100 µM; `COc1cccc(NC(=O)N2CCN(Cc3ccncc3)CC2)c1`: greater than 100 µM.

The record behind these values is ChEMBL document CHEMBL6127063, “N-substituted-4-(pyridin-4-ylalkyl)piperazine-1-carboxamides and related compounds as Leishmania CYP51 and CYP5122A1 inhibitors” (Bioorg Med Chem, 2024).
